Reference: patent US11103526B2, “Methods for treatment using small molecule potassium-sparing diuretics and natriuretics” (University of Pittsburgh—Of the Commonwealth System of …, priority 2016, dated 2021)

Tests used:
anesthetized rats = assay: Acute cardiovascular and renal effects of an intravenous bolus in anesthetized rats (Example 1); assay type: in vivo, male Sprague-Dawley rats; conditions: 33.5 μmoles/kg intravenous bolus
Procedure: Animals. This study employed male Sprague-Dawley rats (Charles River; Wilmington, Mass.) that were approximately 16 weeks old. The Institutional Animal Care and Use Committee approved all procedures.
The rats were anesthetized with Inactin (90 mg/kg, i.p.) and placed on an isothermal pad, and body temperature was monitored with a rectal probe thermometer and maintained at 37° C. with a heat lamp. […] A PE-50 cannula was inserted into the jugular vein, and an infusion of 0.9% saline at 25 μl/min was initiated. A PE-10 tubing was placed in the left ureter for urine collection. […] The dose was selected based on preliminary experiments with 8-aminoguanosine. […] Each group of rats (n of at least 6) received only one treatment. Ten minutes after the test agents were administered, urine was collected for another 30 minutes (Period 2: […] into the protocol).
Statistics. Absolute values are presented as the mean±SEM. Fold-increases were calculated as follows: Period 3 value÷Period 1 value. Statistical analyses were performed using analysis of variance (ANOVA) followed by Fisher's Least Significant Difference (LSD) test if the overall effects or interactions in the ANOVA were significant. P<0.05 was considered statistically significant.

MCT-induced PH = assay: Monocrotaline (MCT)-induced pulmonary hypertension; assay type: in vivo, male Sprague Dawley rats; conditions: 30 mg/kg/day
Procedure: Because PNPase metabolizes guanosine to guanine, the mechanism by which PNPase activity is associated with PH likely includes guanosine protection against PH. A total of 24 male Sprague Dawley rats were used to determine whether administration of guanosine attenuates the development of PH in animals with MCT-induced PH. Animals were randomly assigned for intraperitoneal (i.p.) injection with either a mixture of 1 ml of 1N HCl neutralized with 1.0 N NaOH and diluted with distillated water (10 ml/kg, Control group; n=8) or MCT (60 mg/kg, […]). The MCT (Sigma, St Louis, Mo.) was dissolved in 1N HCl at 100 mg/ml, which was neutralized with 1 N NaOH and diluted with distillated water to 6 mg/ml. Next, a subset of MCT rats (n=8) were assigned to receive guanosine (30 mg/kg/day). The rats were randomly assigned to the Control, MCT, or MCT+guanosine group.
In this PH model, three weeks after MCT administration, mortality rapidly increases (Ren et al., J Pharmacol Exp Ther., 325:920-926, 2008; Seoane et al., Southern Medical Journal, 94:635-639, 2001). Therefore, animals were monitored for four weeks, and acute measurements of right ventricular pressure and morphometric analyses were performed. Twenty-eight days after administration of MCT, the animals were anesthetized and instrumented for right ventricular peak systolic pressure (RVPSP) measurement. Briefly, a PE-240 polyethylene catheter was inserted into the trachea to facilitate breathing. An angled Milliar Micro-tip pressure transducer catheter SPR-513 (Millar Instruments) was inserted into the right jugular vein and advanced into the right ventricle (RV) for RVPSP measurement. After 30-minutes of stabilization, RVPSP was recorded over 20 minutes. The animals were euthanized by anesthetic overdose, and the heart and lungs were collected for morphometric analyses.

[1] = test system: RBCs from SCD patients (HbSS); assay: Hypoxia-induced sickling of RBCs from SCD patients; assay type: cell-based, human; conditions: 2 μmol/L; 1.5 hours pre-incubation, then hypoxia for 3 hours
Procedure: In addition to causing PH in SCD patients and HIV-infected patients, the contribution of PNPase to RBC sickling in SCD patients was assessed. Fresh RBCs were obtained from two adult SCD patients (HbSS); the RBCs were diluted in F-10 HAM buffer to a final hematocrit of 4%. Next, glucose was added for a final concentration of 5.5 mmol/L, and the samples were incubated at room air/temperature in 12-well plates. The RBCs were then treated with either vehicle, 8-aminoguanosine (2 μmol/L), inosine (2 μmol/L), or an 8-aminoguanosine and inosine combination. After 1.5 hours, the RBCs were placed in a hypoxic glove box and maintained under hypoxia (5% 02) for 3 hours, while undergoing mild agitation. At the end of incubation, to prevent reoxygenation-derived morphological changes, the RBCs were fixed under hypoxic conditions in the hypoxic glove box. The samples were assayed for percent sickling.

[2] = Period 3 compared with Period 1

Compound: Nc1nc2c(nc(O)n2[C@H]2C[C@H](O)[C@@H](CO)O2)c(=O)[nH]1 [8-hydroxy-2-deoxyguanosine]
- efficacy grouping (diuretic/natriuretic) (anesthetized rats): little or no efficacy

Compound: Nc1nc2[nH]c(O)nc2c(=O)[nH]1 [8-hydroxyguanine, 8-Hydroxyguanine]
- efficacy grouping (diuretic/natriuretic) (anesthetized rats): moderate efficacy
- sodium excretion increase (anesthetized rats; [2]): 8.6 fold

Compound: Nc1nc2c(nc(O)n2[C@@H]2O[C@H](CO)[C@@H](O)[C@H]2O)c(=O)[nH]1 [8-hydroxyguanosine, 8-Hydroxyguanosine]
- efficacy grouping (diuretic/natriuretic) (anesthetized rats): moderate efficacy
- sodium excretion increase (anesthetized rats; [2]): 7.1 fold

Compound: Nc1nc2[nH]c([N+](=O)[O-])nc2c(=O)[nH]1 [8-nitroguanine, 8-Nitroguanine]
- efficacy grouping (diuretic/natriuretic) (anesthetized rats): moderate efficacy
- sodium excretion increase (anesthetized rats; [2]): 7.8 fold

Compound: Nc1nc2c(nc([N+](=O)[O-])n2[C@@H]2O[C@H](CO)[C@@H](O)[C@H]2O)c(=O)[nH]1 [8-nitroguanosine]
- efficacy grouping (diuretic/natriuretic) (anesthetized rats): little or no efficacy

Compound: NC(N)=NC(=O)c1nc(Cl)c(N)nc1N [amiloride, Amiloride, reference compound]
- effect on heart rate (HR) (anesthetized rats): modestly decreased
- effect on mean arterial blood pressure (MABP) (anesthetized rats): modestly decreased
- effect on mesenteric blood flow (MBF) (anesthetized rats): modestly decreased
- effect on renal blood flow (RBF) (anesthetized rats): modestly decreased
- urine volume increase (anesthetized rats; Period 3 (85-115 min) compared with Period 1 (0-30 min)): 4.5 fold
- potassium excretion decrease (anesthetized rats; [2]): 96.5%
- sodium excretion increase (anesthetized rats; [2]): 13.6 fold
- effect on glucose excretion (anesthetized rats; in words): did not change

Compound: Nc1nc2[nH]cnc2c(=O)[nH]1 [guanine, Guanine, reference compound]
- efficacy grouping (diuretic/natriuretic) (anesthetized rats): moderate efficacy
- sodium excretion increase (anesthetized rats; [2]): 9.4 fold

Compound: Nc1nc2c(ncn2[C@@H]2O[C@H](CO)[C@@H](O)[C@H]2O)c(=O)[nH]1 [guanosine, Guanosine]
- efficacy grouping (diuretic/natriuretic) (anesthetized rats): little or no efficacy
- RV dysfunction (RV EDP, contractility index) (MCT-induced PH; 28 days after MCT): prevented
- RV hypertrophy (RV mass) (MCT-induced PH; 28 days after MCT): attenuated
- inflammatory cell infiltration into the lungs (ED1+ cells) (MCT-induced PH; 28 days after MCT): reduced
- pulmonary vascular remodeling (MCT-induced PH; 28 days after MCT): attenuated
- pulmonary hypertension (RVPSP) (MCT-induced PH; 28 days after MCT 60 mg/kg): attenuated

Compound: O=c1[nH]cnc2c1ncn2[C@@H]1O[C@H](CO)[C@@H](O)[C@H]1O [inosine, Inosine]
- hypoxia-induced sickling of RBCs [1]: significantly reduced
